For data set [1] the following is noted: mouse, in vivo; cited from earlier work.
Data set [2] is described as follows: Stability in simulated gastric fluid. In kind it is in vitro ADME.

SMILES strings stand for the structures. Starred links: 1 amine or outer side, 2 acyl side, 3 side chain; linkers in the order of their positions; H or OH if unused. Non-standard residues stand in square brackets, D forms with d. Residues, ends and D or L forms follow the SMILES beside them. *: point of attachment. NH(1S,2S-2-CONH2-cPent) = NC(=O)[C@H]1CCC[C@@H]1N*; X12 = O=C([C@H]1CCC[C@@H]1N[*:1])[*:2]; X13 = O=C([C@H]1CNC[C@@H]1N[*:1])[*:2]; ACPC(1S,2S) = N[C@H]1CCC[C@@H]1C(=O)*; hArg = N=C(N)NCCCC[C@H](N)C(=O)O; Aib = CC(C)(N)C(=O)O

Regarding `CC[C@H](C)[C@H](NC(=O)[C@H](CCC(=O)O)NC(=O)[C@H](C)NC(=O)[C@@H](NC(=O)[C@H](C)N)C(C)C)C(=O)N[C@@H](CCC(N)=O)C(=O)N[C@@H](CC(C)C)C(=O)N[C@@H](CCSC)C(=O)N[C@@H](Cc1cnc[nH]1)C(=O)N[C@@H](CCC(N)=O)C(=O)N[C@@H](CCCCNC(=N)N)C(=O)N[C@@H](C)C(=O)N[C@@H](CCCCN)C(=O)N[C@@H](Cc1c[nH]c2ccccc12)C(=O)N[C@@H](CC(C)C)C(=O)N[C@@H](CC(N)=O)C(=O)N[C@@H](CO)C(=O)N[C@@H](CCSC)C(=O)N[C@@H](CCCNC(=N)N)C(=O)N[C@@H](CCCNC(=N)N)C(=O)N[C@H](C(=O)N[C@@H](CCC(=O)O)C(=O)N[C@@H](Cc1c[nH]c2ccccc12)C(=O)N[C@@H](CC(C)C)C(=O)N[C@@H](CCCNC(=N)N)C(=O)N[C@@H](CCCCN)C(=O)N[C@@H](CCCCN)C(=O)N[C@@H](CC(C)C)C(=O)N[C@@H](CCC(N)=O)C(=O)N[C@@H](CC(=O)O)C(=O)N[C@H](C(=O)N[C@@H](Cc1cnc[nH]1)C(=O)N[C@@H](CC(N)=O)C(=O)N[C@@H](Cc1ccccc1)C(N)=O)C(C)C)C(C)C` [M-PTH(1-34)] (H-AVAEIQLMHQ[hArg]AKWLNSMRRVEWLRKKLQDVHNF-NH2), in data set [1], the “bioavailability (previously shown)” value is listed as “native-like bioavailability”.
As to `CSCC[C@H](NC(=O)[C@H]1CCC[C@@H]1NC(=O)[C@H](CCC(N)=O)NC(=O)[C@H]1CCC[C@@H]1NC(=O)[C@H](CCC(=O)O)NC(=O)C(C)(C)NC(=O)[C@@H](NC(=O)[C@H]1CCC[C@@H]1N)C(C)C)C(=O)N[C@@H](Cc1cnc[nH]1)C(=O)N[C@@H](CCC(N)=O)C(=O)N[C@@H](CCCCNC(=N)N)C(=O)N[C@@H](C)C(=O)N[C@@H](CCCCN)C(=O)N[C@H]1CCC[C@@H]1C(=O)N[C@@H](CC(C)C)C(=O)N[C@@H](CC(N)=O)C(=O)N[C@@H](CO)C(=O)N[C@H]1CCC[C@@H]1C(=O)N[C@@H](CCCNC(=N)N)C(=O)N[C@@H](CCCNC(=N)N)C(=O)N[C@H](C(=O)N[C@H]1CNC[C@@H]1C(=O)N[C@@H](Cc1c[nH]c2ccccc12)C(=O)N[C@@H](CC(C)C)C(=O)N[C@@H](CCCNC(=N)N)C(=O)N[C@H]1CNC[C@@H]1C(=O)N[C@@H](CCCCN)C(=O)N[C@@H](CC(C)C)C(=O)N[C@@H](CCC(N)=O)C(=O)N[C@H]1CCC[C@@H]1C(=O)N[C@H](C(=O)N[C@@H](Cc1cnc[nH]1)C(=O)N[C@@H](CC(N)=O)C(=O)N[C@H]1CCC[C@@H]1C(N)=O)C(C)C)C(C)C` [M-X1,5,7-FcycD6, XVUEXQXMHQ^hRAKXLNSXRRVZWLRZKLQXVHNX--NH2] ({ACPC(1S,2S)}-V[Aib]E[X12]Q[X12]MHQ[hArg]AK[X12]LNS[X12]RRV[X13]WLR[X13]KLQ[X12]VHN-{NH(1S,2S-2-CONH2-cPent)}), the “stability in simulated gastric fluid” value in data set [2] is “good stability”.

These data come from patent publication US10501518B2 (priority 2013, dated 2019).
